These results are taken from PubChem BioAssay AID328 (DTP/NCI, 2004).

For this assay, the system named is BDF1 mice, P388 leukemia ip, median survival T/C. Nature of the assay: NCI In Vivo Anticancer Drug Screen. Data for tumor model P388 Leukemia (intraperitoneal) in B6D2F1 (BDF1) mice. The note with it: endpoint: median survival time, higher = longer survival. The essentials: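 In tumour-bearing mice, survival after compound treatment is set against the vehicle group and given as a quotient.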

Where [1] appears, read: dose: 100.0 mg/kg/injection, schedule: Q04DX003 (ip), vehicle: saline with Tween-80.
Setting [2] is: dose: 200.0 mg/kg/injection, schedule: Q01DX009 (ip), vehicle: saline with Tween-80.
The mark [3] stands for this setting: dose: 200.0 mg/kg/injection, schedule: Q04DX003 (ip), vehicle: saline with Tween-80.
Setting [4] is: dose: 400.0 mg/kg/injection, schedule: Q01DX009 (ip), vehicle: saline with Tween-80.
[5] abbreviates: dose: 400.0 mg/kg/injection, schedule: Q04DX003 (ip), vehicle: saline with Tween-80.
The mark [6] stands for this setting: dose: 50.0 mg/kg/injection, schedule: Q01DX009 (ip), vehicle: saline with Tween-80.
[7] abbreviates: dose: 100.0 mg/kg/injection, schedule: Q01DX009 (ip), vehicle: saline with Tween-80.
[8] abbreviates: dose: 100.0 mg/kg/injection, schedule: Q01DX001 (ip), vehicle: Klucel (hydroxypropylcellulose) (HPC).
Where [9] appears, read: dose: 200.0 mg/kg/injection, schedule: Q01DX001 (ip), vehicle: Klucel (hydroxypropylcellulose) (HPC).
Setting [10] is: dose: 400.0 mg/kg/injection, schedule: Q01DX001 (ip), vehicle: Klucel (hydroxypropylcellulose) (HPC).
Setting [11] is: dose: 25.0 mg/kg/injection, schedule: Q04DX003 (ip), vehicle: saline with Tween-80.
[12] abbreviates: dose: 50.0 mg/kg/injection, schedule: Q04DX003 (ip), vehicle: saline with Tween-80.
[13] abbreviates: dose: 50.0 mg/kg/injection, schedule: Q01DX009 (ip), vehicle: Klucel (hydroxypropylcellulose) (HPC).
Where [14] appears, read: dose: 100.0 mg/kg/injection, schedule: Q01DX009 (ip), vehicle: Klucel (hydroxypropylcellulose) (HPC).
[15] abbreviates: dose: 12.5 mg/kg/injection, schedule: Q01DX009 (ip), vehicle: saline with Tween-80.
The mark [16] stands for this setting: dose: 25.0 mg/kg/injection, schedule: Q01DX009 (ip), vehicle: saline with Tween-80.
Setting [17] is: dose: 200.0 mg/kg/injection, schedule: Q01DX009 (ip), vehicle: Klucel (hydroxypropylcellulose) (HPC).

Several values for one entry are separate records, joined by “and”; a condition that tells them apart may be missing. Equal values may be shown once. Inconclusive results and toxic doses are left out.

`CC(=O)[C@@]1(O)CC[C@H]2[C@@H]3C[C@H](C)C4=CC(=O)CC[C@]4(C)[C@H]3[C@@H](O)C[C@@]21C`: the T/C was 109 % of control under setting [1]; 122 % of control under setting [2]; 109 % of control under setting [3]; 90 % of control under setting [4]; 118 % of control under setting [5].
Regarding `C[C@]12CCC(=O)C=C1CC[C@@H]1[C@@H]2[C@@H](O)C[C@@]2(C)[C@H]1CC[C@]2(O)C(=O)COC(=O)c1ccc([N+](=O)[O-])cc1Cl`, the T/C was 100 % of control under setting [1], 107 % of control under setting [3] and 103 % of control under setting [5].
In the case of `CC(C(=O)c1ccc(Br)cc1)C(Br)c1ccccc1` (configuration not stated), the T/C is 90 % of control under setting [6]; 113 % of control under setting [7]; 88 % of control (dose: 100.0 mg/kg/injection, schedule: Q04DX003 (ip), vehicle: saline); 88 % of control under setting [2]; 99 % of control (dose: 200.0 mg/kg/injection, schedule: Q04DX003 (ip), vehicle: saline); 97 % of control under setting [4]. Further, the T/C (dose: 400.0 mg/kg/injection, schedule: Q04DX003 (ip), vehicle: saline) is 91 % of control.
On to `CCCCCSC(=S)N(C)NC(=O)c1ccccn1`, for which the T/C is 103 % of control under setting [6], 101 % of control under setting [7] and 100 % of control under setting [2].
With `Cc1ccc2oc(=O)c(-c3cc4oc(=O)sc4cc3O)c(O)c2c1`, the T/C was 100 % of control under setting [8], 100 % of control under setting [9] and 106 % of control under setting [10].
On to `O=c1c2ccc(Cl)cc2[nH]c2ccc(Cl)cc12`, for which the T/C is, setting by setting: under setting [11], 103 % of control; under setting [12], 100 % of control; under setting [1], 99 % of control.
For the compound `CN(C)CC(C)(C)CO`, the T/C is 96 % of control (dose: 25.0 mg/kg/injection, schedule: Q01DX009 (ip), vehicle: saline); 106 % of control (dose: 50.0 mg/kg/injection, schedule: Q01DX009 (ip), vehicle: saline); 101 % of control (dose: 100.0 mg/kg/injection, schedule: Q01DX009 (ip), vehicle: saline); 107 % of control (dose: 200.0 mg/kg/injection, schedule: Q01DX009 (ip), vehicle: saline).
Turning to `CSC(=S)NNC(=O)C1CCCCC1`, the T/C by setting is: (dose: 25.0 mg/kg/injection, schedule: Q01DX001 (ip), vehicle: saline sonified) 100 % of control; (dose: 50.0 mg/kg/injection, schedule: Q01DX001 (ip), vehicle: saline sonified) 104 % of control; (dose: 100.0 mg/kg/injection, schedule: Q01DX001 (ip), vehicle: saline sonified) 100 % of control.
For the compound `O=C(O)c1c[nH]n2c(=S)ncnc12`, the T/C is, setting by setting: under setting [6], 93 % of control; under setting [12], 104 % of control; under setting [7], 104 % of control; under setting [1], 91 % of control; under setting [2], 100 % of control; under setting [3], 87 % of control. The T/C reads like this: under setting [4], 93 % of control; under setting [5], 95 % of control.
Consider `O=C(O)/C=C/C(=O)Nc1ccc(Cl)c(Cl)c1`, for which the T/C by setting is: (dose: 25.0 mg/kg/injection, schedule: Q01DX009 (ip), vehicle: Klucel (hydroxypropylcellulose) (HPC)) 104 % of control; under setting [13], 111 % of control; under setting [14], 111 % of control.
On to `CC(C)C(Br)C(=O)NC(Cc1ccccc1)C(=O)O` (configuration not stated), for which the T/C was 109 % of control under setting [1], 100 % of control under setting [3] and 95 % of control under setting [5].
For the compound `CC1(c2ccc(Cl)s2)NC(=O)NC1=O` (configuration not stated), the T/C reads like this: (dose: 300.0 mg/kg/injection, schedule: Q04DX003 (ip), vehicle: saline with Tween-80) 100 % of control; under setting [5], 98 % of control; (dose: 600.0 mg/kg/injection, schedule: Q04DX003 (ip), vehicle: saline with Tween-80) 86 % of control.
As for `NC(N)=NC(N)=Nc1ccc(-c2ccc(N=C(N)N=C(N)N)cc2)cc1`, the T/C runs as follows: under setting [15], 151 % of control; under setting [16], 89 % of control.
On to `CCCCN(CCCC)c1ccc([N+](=O)[O-])c2no[n+]([O-])c12`, for which the T/C (dose: 15.0 mg/kg/injection, schedule: Q01DX009 (ip), vehicle: saline with Tween-80) is 96 % of control; the T/C (dose: 30.0 mg/kg/injection, schedule: Q01DX009 (ip), vehicle: saline with Tween-80) was 92 % of control; the T/C (dose: 60.0 mg/kg/injection, schedule: Q01DX009 (ip), vehicle: saline with Tween-80) was 91 % of control.
Turning to `COc1cc2c3c(c1O)C1(C=CC(=O)C=C1)CC3N(C)CC2` (configuration not stated), the T/C is, setting by setting: under setting [6], 112 % of control; under setting [7], 115 % of control.
Take `CC(C)(C)CC(C)(C)c1ccc(OCCOc2ccccc2NC(=O)CC(=O)c2cccc([N+](=O)[O-])c2)cc1`: the T/C by setting is: under setting [8], 95 % of control; under setting [9], 95 % of control; under setting [10], 95 % of control.
As to `Cc1ccc(C(C#N)Nc2ccccc2)cc1` (configuration not stated), the T/C is, setting by setting: under setting [7], 100 % of control; under setting [1], 100 % of control; under setting [2], 115 % of control; under setting [3], 100 % of control; under setting [4], 100 % of control; under setting [5], 104 % of control.
Regarding `CC1=CC=CC(=O)C1(C)C(Cl)Cl` (configuration not stated), the T/C was 110 % of control under setting [1], 115 % of control under setting [3] and 120 % of control under setting [5].
Regarding `CC(=O)n1cc(C2CC(=O)OC3=C2C(=O)CCC3)c2ccccc21` (configuration not stated), the T/C is 94 % of control under setting [7]; 98 % of control under setting [1]; 100 % of control under setting [2]; 93 % of control under setting [3]; 102 % of control under setting [4]; 93 % of control under setting [5].
For `O=C(O)CCSc1ccccc1`, the T/C under setting [13] was 90 % of control; the T/C (dose: 50.0 mg/kg/injection, schedule: Q04DX003 (ip), vehicle: Klucel (hydroxypropylcellulose) (HPC)) is 95 % of control; the T/C under setting [14] is 100 % of control; the T/C (dose: 100.0 mg/kg/injection, schedule: Q04DX003 (ip), vehicle: Klucel (hydroxypropylcellulose) (HPC)) was 100 % of control; the T/C under setting [17] is 109 % of control; the T/C (dose: 200.0 mg/kg/injection, schedule: Q04DX003 (ip), vehicle: Klucel (hydroxypropylcellulose) (HPC)) was 100 % of control.
As for `CC(=O)OCC(=O)[C@@]1(O)CC[C@H]2[C@@H]3C[C@H](F)C4=CC(=O)CC[C@]4(C)[C@H]3[C@@H](O)C[C@@]21C`, the T/C was 109 % of control under setting [15], 118 % of control under setting [16] and 118 % of control under setting [6].
For `C1CCCC(NC2=NCCO2)CCC1`, the T/C was 100 % of control (dose: 6.25 mg/kg/injection, schedule: Q04DX003 (ip), vehicle: saline with Tween-80); 109 % of control (dose: 12.5 mg/kg/injection, schedule: Q04DX003 (ip), vehicle: saline with Tween-80); 95 % of control under setting [11].
For the compound `COC(=O)C(CC(C)C)NC(=O)C(Cc1ccc(Oc2ccc([N+](=O)[O-])cc2[N+](=O)[O-])cc1)NC=O` (configuration not stated), the T/C was 95 % of control (dose: 25.0 mg/kg/injection, schedule: Q04DX003 (ip), vehicle: water); 99 % of control (dose: 300.0 mg/kg/injection, schedule: Q04DX003 (ip), vehicle: water); 96 % of control and 98 % of control and 112 % of control (dose: 400.0 mg/kg/injection, schedule: Q04DX003 (ip), vehicle: water).
Take `CC1=NNC(=O)C1CCO` (configuration not stated): the T/C is, setting by setting: under setting [13], 86 % of control; under setting [14], 104 % of control; (dose: 175.0 mg/kg/injection, schedule: Q01DX009 (ip), vehicle: Klucel (hydroxypropylcellulose) (HPC)) 90 % of control; under setting [17], 122 % of control; (dose: 265.0 mg/kg/injection, schedule: Q01DX009 (ip), vehicle: Klucel (hydroxypropylcellulose) (HPC)) 104 % of control; (dose: 400.0 mg/kg/injection, schedule: Q01DX009 (ip), vehicle: Klucel (hydroxypropylcellulose) (HPC)) 95 % of control.
`O=C(c1ccccc1)C1(C(=O)c2ccccc2)c2ccccc2-c2ccccc21`: the T/C is 101 % of control (dose: 50.0 mg/kg/injection, schedule: Q01DX005 (ip), vehicle: Klucel (hydroxypropylcellulose) (HPC)); 104 % of control (dose: 100.0 mg/kg/injection, schedule: Q01DX005 (ip), vehicle: Klucel (hydroxypropylcellulose) (HPC)); 101 % of control (dose: 200.0 mg/kg/injection, schedule: Q01DX005 (ip), vehicle: Klucel (hydroxypropylcellulose) (HPC)).
